Test results from patent publication US7241785B2, “Five-membered heterocyclic alkanoic acid derivative” (Takeda Pharmaceutical Company Limited, priority 2001, dated 2007).

How the values were obtained:
KKA^y mice [1] = experiment: Total cholesterol lowering action and plasma anti-arteriosclerosis index-enhancing action in mice; format: in vivo; details: Mus musculus, po, 96 h, 0.01% in powdery diet, four days
Experimental: Total Cholesterol Lowering Action and Plasma Anti-Arteriosclerosis Index-Enhancing Action in Mice
Test compounds were mixed in a powdery diet (CE-2, Japan Clea concentration of 0.01%, and freely given to KKA^y mice (11 to 12 weeks old, 5 mice per group), a model of type 2 diabetes mellitus, for four days. During this period, water was given freely. Blood was sampled from orbital venous plexus, and components in plasma separated from the blood were determined. Total cholesterol levels were determined using L type Wako Cholesterol (Wako Pure Chemical Industries, Ltd.). Precipitation reagent for HDL cholesterol was added to a part of the plasma to precipitate non-HDL lipoprotein, and cholesterol (HDL cholesterol) in the resulting supernatant was determined. The plasma anti-arteriosclerosis index [(HDL cholesterol/total cholesterol)×100] was calculated using these cholesterol levels.
In the Table, “total cholesterol lowering action (%)” represents a percent reduction (%) of the total cholesterol level in the treatment group when the total cholesterol level in the non-treatment group is taken as 100%. In addition, “plasma anti-arteriosclerosis index-enhancing action (%)” represents a percent increase (%) of the plasma anti-arteriosclerosis index in the treatment group when the plasma anti-arteriosclerosis index in the non-treatment group is taken as 100%.

KKA^y mice [2] = experiment: Hypoglycemic and hypolipidemic (hypotriglyceridemic) actions in mice; format: in vivo; details: Mus musculus, po, 96 h, 0.01% in powdery diet, four days
Experimental: Hypoglycemic and Hypolipidemic (Hypotriglyceridemic) Actions in Mice
Test compounds were mixed in a powdery diet (CE-2, Japan Clea) at the concentration of 0.01%, and freely given to KKA^y mice (11 to 12 weeks old, 5 mice per group), a model of type 2 diabetes mellitus, for four days. During this period, water was given freely. Blood was sampled from orbital venous plexus, and glucose and triglyceride levels in plasma separated from the blood were determined enzymatically using L type Wako Glu2 (Wako Pure Chemical Industries, Ltd.) or L type Wako TG.H (Wako Pure Chemical Industries, Ltd.), respectively.
In the Table, “hypoglycemic action (%)” represents a percent reduction (%) of the blood glucose level in the treatment group when the blood glucose level in the non-treatment group is taken as 100%. In addition, “hypolipidemic action (%)” represents a percent reduction (%) of the blood triglyceride level in the treatment group when the blood triglyceride level in the non-treatment group is taken as 100%.

[3] = percent reduction of blood glucose level vs non-treatment group (100%), read-out: Hypoglycemic action (%)
[4] = percent reduction of blood triglyceride level vs non-treatment group (100%), read-out: Hypolipidemic action (%)

melting point	SMILES	further results
132 to 133 °C	COc1cc(COc2nn(-c3ccccc3)cc2CC(=O)N2CCOCC2)ccc1OCc1nc(-c2ccco2)oc1C [Example 74, 4-[3-[4-[2-(2-furyl)-5-methyl1–4-oxazolylmethoxy]-3-methoxybenzyloxy]-1-phenyl-1H-pyrazol-4-yl]acetylmorpholine]	
110 to 111 °C	Cc1oc(-c2ccccc2)nc1COc1ccc(CCc2oc(-c3ccccc3)nc2CCC(=O)O)cc1 [Example 65, 3-[5-[2-[4-(5-methyl-2-phenyl-4-oxazolyl)methoxyphenyl]ethyl]-2-phenyl-4-oxazolyl]propionic acid]	
179 to 180 °C	COc1cc(COc2nn(-c3ccccc3)cc2CC(=O)O)ccc1OCc1nc(-c2ccco2)oc1C [Example 73, [3-[4-[2-(2-furyl)-5-methyl-4-oxazolylmethoxy]-3-methoxybenzyloxy]-1-phenyl-1H-pyrazol-4-yl]acetic acid]	
145 to 146 °C (dec.)	COc1cc(COc2cc(CC(=O)O)n(-c3ccccc3)n2)ccc1OCc1nc(-c2ccco2)oc1C [Example 77, [3-[4-[2-(2-furyl)-5-methyl-4-oxazolylmethoxy]-3-methoxybenzyloxy]-1-phenyl-1H-pyrazol-5-yl]acetic acid]	
154 to 155 °C	Cc1oc(-c2ccccc2)nc1COc1ccc(COc2cc(CCC(=O)O)n(-c3ccccc3)n2)cc1 [Example 81, 3-[3-[4-(5-methyl-2-phenyl-4-oxazolylmethoxy)benzyloxy]-1-phenyl-1H-pyrazol-5-yl]propionic acid]	
96 to 97 °C	COC(=O)Cc1cn(-c2ccccc2)nc1OCc1ccc(OCc2nc(-c3ccccc3)oc2C)nc1 [Example 53, methyl [3-[6-(5-methyl-2-phenyl-4-oxazolylmethoxy)-3-pyridylmethoxy]-1-phenyl-1H-pyrazol-4-yl]acetate]	
107 to 108 °C	COC(=O)Cc1cn(-c2ccccc2)nc1OCc1ccc(OCc2nc(-c3ccccc3)oc2C)c(OC)c1 [Example 51, methyl [3-[3-methoxy-4-(5-methyl-2-phenyl-4-oxazolylmethoxy)benzyloxy]-1-phenyl-1H-pyrazol-4-yl]acetate]	
161 to 162 °C	COc1cc(COc2nn(-c3ccccc3)cc2CCC(=O)O)ccc1OCc1nc(-c2ccco2)oc1C [Example 56, 3-[3-[4-[2-(2-furyl)-5-methyl-4-oxazolylmethoxy]-3-methoxybenzyloxy]-1-phenyl-1H-pyrazol-4-yl]propionic acid]	
157 to 158 °C	COc1cc(COc2cc(CCC(=O)O)n(-c3ccccc3)n2)ccc1OCc1nc(-c2ccccc2)oc1C [Example 79, 3-[3-[3-methoxy-4-(5-methyl-2-phenyl-4-oxazolylmethoxy)benzyloxy]-1-phenyl-1H-pyrazol-5-yl]propionic acid]	
137 to 138 °C	Cc1oc(-c2ccccc2)nc1COc1cccc(COc2cc(CCC(=O)O)n(-c3ccccc3)n2)c1 [Example 83, 3-[3-[3-(5-methyl-2-phenyl-4-oxazolylmethoxy)benzyloxy]-1-phenyl-1H-pyrazol-5-yl]propionic acid]	
74 to 76 °C	Cc1oc(-c2ccco2)nc1COc1ccc(Cc2nc(-c3ccccc3)c(CCC(=O)O)o2)cc1 [Example 69, 3-[2-[4-[2-(2-furyl)-5-methyl-4-oxazolylmethoxy]benzyl]-4-phenyl-5-oxazolyl]propionic acid]	
154 to 155 °C	Cc1oc(-c2ccco2)nc1COc1ccc(Cc2nc(CCC(=O)O)c(-c3ccccc3)o2)cc1 [Example 67, 3-[2-[4-[2-(2-furyl)-5-methyl-4-oxazolylmethoxy]benzyl]-5-phenyl-4-oxazolyl]propionic acid]	
130 to 131 °C	Cc1oc(-c2ccccc2)nc1COc1ccc(COc2nn(Cc3ccccc3)cc2CCC(=O)O)cn1 [Example 48, 3-[1-benzyl-3-[6-(5-methyl-2-phenyl-4-oxazolylmethoxy)-3-pyridylmethoxy]-1H-pyrazol-4-yl]propionic acid]	

The next lines start with the compound.

SMILES	melting point	further results
COc1cc(COc2nn(C)cc2CC(=O)O)ccc1OCc1nc(-c2ccccc2)oc1C [Example 42, [3-[3-methoxy-4-(5-methyl-2-phenyl-4-oxazolylmethoxy)benzyloxy]-1-methyl-1H-pyrazol-4-yl]acetic acid]	153 to 154 °C	
Cc1oc(-c2ccccc2)nc1COc1ccc(CSc2nc(CCC(=O)O)n[nH]2)cc1 [Example 18, 3-[5-[4-(5-methyl-2-phenyl-4-oxazolylmethoxy)benzylthio]-1H-1,2,4-triazol-3-yl]propionic acid]	170 to 171 °C	
Cc1oc(-c2ccccc2)nc1COc1ccc(CN(C)c2nc(-c3ccccc3)c(CCC(=O)O)s2)cc1.Cl	106 to 108 °C	
Cn1cc(CC(=O)O)c(OCc2ccc(OCc3csc(-c4ccccc4)n3)nc2)n1 [Example 34, [1-methyl-3-[6-(2-phenyl-4-thiazolylmethoxy)-3-pyridylmethoxy]-1H-pyrazol-4-yl]acetic acid]	156 to 157 °C	
Cc1oc(-c2ccccc2)nc1COc1cc(COc2nn(C)cc2CC(=O)O)on1 [Example 30, [1-methyl-3-[3-(5-methyl-2-phenyl-4-oxazolylmethoxy)-5-isoxazolylmethoxy]-1H-pyrazol-4-yl]acetic acid]	149 to 150 °C	
Cc1oc(-c2ccccc2)nc1COc1cc(COc2nn(C)cc2CC(=O)O)ccn1 [Example 28, [1-methyl-3-[2-(5-methyl-2-phenyl-4-oxazolylmethoxy)-4-pyridylmethoxy]-1H-pyrazol-4-yl]acetic acid]	126 to 127 °C	
Cn1cc(CC(=O)O)c(OCc2cc(OCc3ccc4ccccc4n3)no2)n1 [Example 32, [1-methyl-3-[3-(2-quinolylmethoxy)-5-isoxazolylmethoxy]-1H-pyrazol-4-yl]acetic acid]	124 to 125 °C	
Cc1oc(-c2ccccc2)nc1COc1ccc(COc2nn(Cc3ccccc3)cc2CC(=O)O)cn1 [Example 40, [1-benzyl-3-[6-(5-methyl-2-phenyl-4-oxazolylmethoxy)-3-pyridylmethoxy]-1H-pyrazol-4-yl]acetic acid]	87 to 88 °C	change in vivo at 0.01 % in diet (KKA^y mice [1]; percent increase of index [(HDL cholesterol/total cholesterol)×100] vs non-treatment group (100%)): 22%; inhibition in vivo at 0.01 % in diet (KKA^y mice [1]; percent reduction of total cholesterol level vs non-treatment group (100%)): 13%; inhibition in vivo at 0.01 % in diet (KKA^y mice [2]; [3]): 52%; inhibition in vivo at 0.01 % in diet (KKA^y mice [2]; [4]): 76%
Cc1oc(-c2ccccc2)nc1COc1ccc(COc2nn(Cc3ccccc3)cc2CC(=O)O)cc1 [Example 44, [1-benzyl-3-[4-(5-methyl-2-phenyl-4-oxazolylmethoxy)benzyloxy]-1H-pyrazol-4-yl]acetic acid]	91 to 92 °C	inhibition in vivo at 0.01 % in diet (KKA^y mice [2]; [3]): 53%; inhibition in vivo at 0.01 % in diet (KKA^y mice [2]; [4]): 68%
Cc1oc(-c2ccccc2)nc1CCOc1ccc(COc2nn(C)cc2CC(=O)O)cc1 [Example 22, [1-methyl-3-[4-[2-(5-methyl-2-phenyl-4-oxazolyl)ethoxy]benzyloxy]-1H-pyrazol-4-yl]acetic acid]	148 to 149 °C	
Cc1oc(-c2ccccc2)nc1COc1ccc(COc2nn(C)cc2CC(=O)O)cc1 [Example 24, [1-methyl-3-[4-(5-methyl-2-phenyl-4-oxazolylmethoxy)benzyloxy]-1H-pyrazol-4-yl]acetic acid]	133 to 134 °C	inhibition in vivo at 0.01 % in diet (KKA^y mice [2]; [3]): 50%; inhibition in vivo at 0.01 % in diet (KKA^y mice [2]; [4]): 22%
Cc1oc(-c2ccccc2)nc1COc1ccc(COc2nn(Cc3ccccc3)cc2CCC(=O)O)cc1 [Example 20, 3-[1-benzyl-3-[-4-(5-methyl-2-phenyl-4-oxazolylmethoxy)benzyloxy]-1H-pyrazol-4-yl]propionic acid]	125 to 126 °C	
Cc1oc(-c2ccccc2)nc1COc1ccc(Sc2nc(CC(=O)O)cs2)cc1 [Example 19, [2-[4-(5-methyl-2-phenyl-4-oxazolylmethoxy)phenylthio]-4-thiazolyl]acetic acid]	180 to 181 °C	
COc1cc(COc2nn(Cc3ccccc3)cc2CC(=O)O)ccc1OCc1nc(-c2ccccc2)oc1C [Example 46, [1-benzyl-3-[3-methoxy-4-(5-methyl-2-phenyl-4-oxazolylmethoxy)benzyloxy]-1H-pyrazol-4-yl]acetic acid]	99 to 100 °C	inhibition in vivo at 0.01 % in diet (KKA^y mice [2]; [3]): 54%; inhibition in vivo at 0.01 % in diet (KKA^y mice [2]; [4]): 56%
Cc1sc(-c2ccccc2)nc1COc1ccc(COc2nn(C)cc2CC(=O)O)cn1 [Example 36, [1-methyl-3-[6-(5-methyl-2-phenyl-4-thiazolylmethoxy)-3-pyridylmethoxy]-1H-pyrazol-4-yl]acetic acid]	140 to 141 °C	
